According to patent US11440935B2, “3″,5″-dimethoxybenzoyl-3′-amino-3′-deoxy adenosine-5′-triphosphates and pharmaceutical uses thereof” (Danmir Therapeutics, LLC, priority 2018, dated 2022):
Several values for one entry are separate records, joined by “and”; a condition that tells them apart may be missing. Equal entries are not always repeated. Entries after “also recorded” stand apart in the source; their conditions may differ. Structures can show the parent of a compound that is named as a salt. Values belong to the molecule of their own block, whether it stands above or below them.

Tests used:
P2X3 receptor = conditions: guinea pig airway-specific primary nodose ganglion cell afferents; cited from earlier work
conscious guinea-pigs = experiment: Aerosolized ATP-induced cough in conscious free moving guinea-pigs; format: in vivo, guinea-pig
Protocol: This study was performed in 6 guinea-pigs. The housing room was constantly ventilated, and the temperature kept at ˜23° C. After quarantine, the animals were individually placed in a whole-body, unrestrained, plethysmograph chamber (model PLY3215, Buxco Electronics Inc., Troy, N.Y.) for ˜40 min once a day for two continuous days before the cough test. All GPs were weighed before the cough study.
ATP was purchased from Sigma-Aldrich (Cat #A2383-10G). Solutions of ATP used for aerosol challenge were freshly made just prior to use by dissolving the powder in 0.9% saline (NaCl) solution. Solutions of DT-0111 used for aerosol administration were freshly made by dissolving the powder in 0.9% saline (NaCl) solution.
A plethysmograph chamber was continuously flushed with normoxic (21% O2 and 79% N2) room air at 2 L/min. The same amount of air was drawn through the chamber base outlets using a Buxco bias flow regulator to keep the chamber bias flow balanced. ATP or DT solution was aerosolized by using a vibrating mesh nebulizer (Ireland Ltd., Galway Ireland, AG-AL1100). The output rate of delivered aerosol was around 0.5 ml/min with droplet size (volume median diameter) at 2.5-4.0 μm (manufacture's indications). The aerosol was mixed with airflow and directly delivered into the plethysmograph chamber. The latter was placed in a standard chemical fume hood (size: 3×6 ft) installed in a standard laboratory.
A guinea-pig was placed in the chamber again after adaptation. Following stabilization, #1 guinea-pig was exposed to aerosolized ATP at 6 mg/ml, 24 mg/ml, and then 48 mg/ml for 5 min with an interval of 30 min. The remaining animals (#2-#6 guinea-pigs) were exposed to aerosolized ATP at 48 mg/ml for 5 min. Approximately 140 min later, the same dose of ATP was repeated immediately after DT-0111 aerosol inhalation (12 mg/ml for 5 min). […] The cough sound and behavioral activities were continuously monitored and recorded before (for 3 min), during 5 min aerosol delivery, and 20 min after cessation of the delivery.
Setup of the cough recording system. The top of the plethysmograph chamber was connected with a plastic tube that was attached by the nebulizer. Normoxic air driven by the nebulizer controller was flowed into the chamber and sucked out by the bias flow regulator with the in and out flow volume balanced (2.0 L/min). To detect cough, a microphone system was mounted in the roof of the chamber to record sound; a video camera was placed outside of the chamber to monitor animal body posture; and a Buxco pneumotachograph (differential pressure transducer) attached to the chamber to record airflow. All signals generated by video camera, microphone, and pressure transducer were amplified and recorded continuously by PowerLab/8 sp (model ML 785; ADInstruments Inc., Colorado Springs, Colo.) and a computer with the LabChart Pro 7 software.
Cough count. A typical cough response, as reported before (Girard et al., Eur Respir J, 1995; Blasko et al., American Journal of Advanced Drug Delivery. 5:131-138, 2017; Corboz et al., Journal of Pharmacology and Experimental Therapeutics. 363: 348-357, 2017), was defined by the simultaneous appearance of: 1) a transient and great change in the airflow (a rapid inspiration followed by rapid expiration); 2) a typical cough sound with the peak power density at 1-2 kHz in frequency spectrum (sneeze at 3.5-6.5 kHz); and 3) animal body (head) posture and movement.

P2X2/3 receptor = target: T1, P2X2/3 receptor (Rattus norvegicus, UniProt P49653+P49654); experiment: Nodose ganglion neuron assay of P2X2/3 receptor antagonism (whole-cell voltage-clamp); format: cell-based; conditions: rat nodose ganglionic cell; for antagonism of ATP-induced inward current: ATP 10 μM, whole-cell voltage clamp
T1 construct: Single neurons were enzymatically isolated from rats' nodose ganglia; from tissue; host or cells: dissociated nodose ganglion neurons of 17-day-old male Sprague-Dawley rats
T1 sequence (P49653 1-472): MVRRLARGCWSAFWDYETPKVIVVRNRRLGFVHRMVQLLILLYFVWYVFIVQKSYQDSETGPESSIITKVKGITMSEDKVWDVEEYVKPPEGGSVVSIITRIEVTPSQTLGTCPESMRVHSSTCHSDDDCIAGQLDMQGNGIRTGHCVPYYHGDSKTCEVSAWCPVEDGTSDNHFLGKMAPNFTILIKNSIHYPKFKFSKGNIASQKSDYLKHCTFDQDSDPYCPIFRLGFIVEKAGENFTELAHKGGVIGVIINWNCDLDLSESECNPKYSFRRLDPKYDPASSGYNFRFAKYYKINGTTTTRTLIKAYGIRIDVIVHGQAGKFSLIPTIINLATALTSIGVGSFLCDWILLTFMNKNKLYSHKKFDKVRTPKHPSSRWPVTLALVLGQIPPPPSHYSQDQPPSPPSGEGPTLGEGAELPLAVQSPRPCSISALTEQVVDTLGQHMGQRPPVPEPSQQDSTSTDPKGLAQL
T1 sequence (P49654 1-397): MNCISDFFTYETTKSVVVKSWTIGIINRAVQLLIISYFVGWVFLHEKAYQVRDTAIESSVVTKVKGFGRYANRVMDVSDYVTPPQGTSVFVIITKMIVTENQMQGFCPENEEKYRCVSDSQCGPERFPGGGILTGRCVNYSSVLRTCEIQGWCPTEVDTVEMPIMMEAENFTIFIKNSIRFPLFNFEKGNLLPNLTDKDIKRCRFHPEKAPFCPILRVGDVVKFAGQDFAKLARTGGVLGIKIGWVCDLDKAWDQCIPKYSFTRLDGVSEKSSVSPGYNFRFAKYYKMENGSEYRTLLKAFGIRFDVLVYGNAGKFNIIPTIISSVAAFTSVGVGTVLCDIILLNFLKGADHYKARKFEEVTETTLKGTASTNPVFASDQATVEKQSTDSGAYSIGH
Protocol: Single neurons were enzymatically isolated from rats' nodose ganglia as described by Zhong et al., Br J Pharmacol 1998; 125, 771-781. Briefly, 17- day old male Sprague-Dawley rats were killed by CO2 inhalation. Ganglia were rapidly dissected and placed in Leibovitz's L-15 medium (Life Technologies, Paisley, UK). Ganglia were desheathed, cut and incubated in 4 ml Ca^2+/Mg^2+-free Hanks' balanced salt solution with 10 mm Hepes buffer (pH 7.0) (HBSS) (Life Technologies) containing 1.5 mg ml-1 collagenase (Class-II; Worthington Biochemical Corporation, Reading, UK) and 6 mg ml-1 bovine serum albumin (Sigma) at 37° C. for 40 min. Ganglia were then incubated with 4 ml HBSS containing 1 mg ml-1 trypsin (Sigma) at 37° C. for 20 min. The solution was replaced with 3 ml of growth medium comprising L-15 medium supplemented with 10% bovine serum, 50 ng ml-1 nerve growth factor, 0.2% NaHCO3, 5.5 mg ml-1 glucose, 200 IU ml-1 penicillin and 200 μg ml-1 streptomycin. The ganglia were dissociated into single neurons by gentle trituration. The cells were then centrifuged at 160 g for 5 min, resuspended in 1 ml of growth medium, and plated onto 35 mm Petri dishes coated with 10 μg ml-1 laminin (Sigma). Cells were maintained at 37° C. in a humidified atmosphere containing 5% CO2 and used between 2 and 48 hours after plating.
Whole-cell voltage-clamp recordings were performed at room temperature using an Axopatch 200B amplifier (Axon Instruments, Union City, Calif., USA). Membrane potential was held at […]. The external solution contained (mM): 154 NaCl, 4.7 KCl, 1.2 MgCl2, 2.5 CaCl2), 10 Hepes, 5.6 glucose, and the pH was adjusted to 7.4 using NaOH. Recording electrodes (resistance […]) were filled with an internal solution which contained (mm): 56 citric acid, 3 MgCl2, 10 CsCl, 10 NaCl, […], 0.1 EGTA, 10 tetraethylammonium chloride, and the pH was adjusted to 7.2 using CsOH (total Cs+concentration 170 mm). […] Solution exchange measured by changes in open tip current was complete in 200 ms; however, complete exchange of solution around an intact cell was slower (<1 s). […]

P2X3-P2X2/3 = conditions: experimental animals; cited from earlier work
[1] = ATP (48 mg/ml) aerosol 5 min alone, per guinea-pig

Compound: COc1cc(C(C)C)c(Oc2cnc(N)nc2N)cc1I [AF-353]
effect on TRPV4 receptor activation effects (Aδ fiber stimulation and coughing) (P2X3 receptor): markedly attenuated

Compound: Nc1ncnc2c1ncn2[C@@H]1O[C@H](COP(=O)(O)OP(=O)(O)OP(=O)(O)O)[C@@H](O)[C@H]1O [ATP, adenosine 5′-triphosphate]
cough evoked by aerosolized ATP (conscious guinea-pigs; ATP 48 mg/ml, 5 min exposure, all animals): evoked significant coughs
Bout Cough B1# (cough number in first bout) (conscious guinea-pigs; [1]): 24 and 14 and 18 and 19 and 21
Individual Cough (conscious guinea-pigs; [1]): 3 and 0 (2×) and 1 (3×)
Subtotal coughs (conscious guinea-pigs; ATP (48 mg/ml) aerosol 5 min alone, per guinea-pig and Mean): 27 and 24 and 35 and 19 and 22

antagonism of ATP-induced inward current (P2X2/3 receptor; listed as 3″,5″-dimethoxybenzoyl-3′-amino-3′-deoxyadenosine-5′-triphosphate triethylammoni, Ammonium Salt): substantially abrogated
reversibility of antagonism on washout (P2X2/3 receptor; after washing out the antagonist): reversible
Compound: COc1cc(OC)cc(C(=O)NC2C(O)[C@H](n3cnc4c(N)ncnc43)O[C@@H]2COP(=O)(O)OP(=O)(O)OP(=O)(O)O)c1 (stereo partly drawn) [Compound 11, 3″,5″-Dimethoxybenzoyl-3′-amino-3′-deoxyadenosine-5′-triphosphate Triethyl Ammonium Salt]
antagonism of ATP-induced inward current (P2X2/3 receptor; listed as compound 11, Ammonium Salt): substantially abrogated; also recorded: complete antagonism at the higher concentrations

Compound: O=C(O)c1cc(C(=O)O)c(C(=O)N(Cc2cccc(Oc3ccccc3)c2)[C@H]2CCCc3ccccc32)cc1C(=O)O [Compound A-317491]
effect on cyclophosphamide (CYP)-induced cystitis (P2X3-P2X2/3): inhibit cyclophosphamide (CYP)-induced cystitis
